From article PMC8386742, “Discovery of N-aryl sulphonamide-quinazoline derivatives as anti-gastric cancer agents in vitro and in vivo via activating the Hippo signalling pathway” (Journal of Enzyme Inhibition and Medicinal Chemistry, 2021)

What was measured:
PC-3 cells = assay: MTT antiproliferative assay, PC-3 cells; type: cell-based, human; conditions: Homo sapiens, PC-3, exposure for 48 h
Experimental: (§1) The in vitro antiproliferative activities of new target compounds 6a–6g, 9a–9i, 10a–10j, 11a–11j, and 14a–14d were evaluated against four human cancer cell lines (MGC-803, PC-3, HCT-116, and MCF-7) using MTT assay and 5-FU as a positive drug. The following Tables 1–[4] depicted the results of in vitro antiproliferative activity.
(§2) Cell lines used were cultured in humidified incubator in a humidified atmosphere of 5% CO2 and 95% air. The RPMI-1640 medium was supplemented with 10% foetal bovine serum, penicillin (100 U/ml) and streptomycin (0.1 mg/ml).
(§3) Cell lines were seeded into 96-well plates and incubated for 24 h. Then cells were treated with different concentrations of compounds. And after another 48 h, MTT reagent (20 μL per well) was added to each well and then incubated at 37 °C for 4 h. After the suspension was discarded, formazan was then dissolved with DMSO. Absorbencies of formazan solution were measured at 490 nm. The IC50 values of tested compounds were calculated by SPSS version 17.0.

HCT-116 cells = assay: MTT antiproliferative assay, HCT-116 cells; type: cell-based, human; conditions: Homo sapiens, HCT-116, 48 h, exposure for 48 h
Experimental: as §1, §2, §3

MGC-803 cells = assay: MTT antiproliferative assay, MGC-803 cells; type: cell-based, human; conditions: exposure for 48 h
Experimental: as §1, §2, §3

MCF-7 cells = assay: MTT antiproliferative assay, MCF-7 cells; type: cell-based, human; conditions: Homo sapiens, MCF7, 48 h, exposure for 48 h
Experimental: as §1, §2, §3

SMILES	IC50 (PC-3 cells) [µM]	IC50 (HCT-116 cells) [µM]	melting point [°C]	IC50 (MGC-803 cells; Homo sapiens, MGC-803, 48 h) [µM]	IC50 (MCF-7 cells) [µM]	IC50 (MGC-803 cells) [µM]
COc1ccc(S(=O)(=O)N(Cc2nc(C)c3ccccc3n2)c2ccc(C)cc2)cc1 [Compound 14d, 4-Methoxy-N-((4-methylquinazolin-2-yl)methyl)-N-(p-tolyl)benzene-sulphonamide]	45.7 ± 2.88	> 50	129 to 130	42.2 ± 2.44	> 50	
COc1ccc(CN(c2cc(OC)c(OC)c(OC)c2)S(=O)(=O)c2ccc(Cl)cc2)cc1 [Compound 6b, 4-Chloro-N-(4-methoxybenzyl)-N-(3,4,5-trimethoxyphenyl) benzene-sulphonamide]	> 40	> 40	166 to 167	> 40	> 40	
COc1cc(N(Cc2nc(C)c3ccccc3n2)C(=O)c2ccc(C)cc2)cc(OC)c1OC [Compound 11e, 4-Methyl-N-((4-methylquinazolin-2-yl)methyl)-N-(3,4,5-trimethoxyphenyl) benzamide]	24.9 ± 1.41		196 to 197	10.8 ± 1.18	18.6 ± 1.32	
COc1cc(N(Cc2nc(C)c3ccccc3n2)S(=O)(=O)c2ccccc2)cc(OC)c1OC [Compound 10a, N-((4-methylquinazolin-2-yl)methyl)-N-(3,4,5-trimethoxyphenyl) benzene-sulphonamide]	28.2 ± 2.12	16.7 ± 1.03	178 to 179	6.62 ± 0.82	> 50	
COc1ccc(CN(c2cc(OC)c(OC)c(OC)c2)S(=O)(=O)c2cccs2)cc1 [Compound 6f, N-(4-methoxybenzyl)-N-(3,4,5-trimethoxyphenyl) thiophene-2-sulphonamide]	38.7 ± 2.87	38.1 ± 2.64		28.3 ± 2.86	26.1 ± 1.87	
COc1cc(N(Cc2nc(C)c3ccccc3n2)S(=O)(=O)c2ccc(F)cc2)cc(OC)c1OC [Compound 10b, 4-Fluoro-N-((4-methylquinazolin-2-yl)methyl)-N-(3,4,5-trimethoxyphenyl) benzene-sulfonamide]	4.72 ± 1.02	3.84 ± 0.14	162 to 163	0.92 ± 1.07	5.46 ± 0.87	
COc1ccc(S(=O)(=O)N(Cc2cccnc2)c2cc(OC)c(OC)c(OC)c2)cc1 [Compound 9f, 4-Methoxy-N-(pyridin-3-ylmethyl)-N-(3,4,5-trimethoxyphenyl) benzene-sulphonamide]	11.3 ± 1.11	6.92 ± 0.79	158 to 159	1.31 ± 0.08	6.31 ± 1.11	
COc1ccc(S(=O)(=O)N(Cc2c(C)noc2C)c2cc(OC)c(OC)c(OC)c2)cc1 [Compound 9h, N-((3,5-dimethylisoxazol-4-yl)methyl)-4-methoxy-N-(3,4,5-trimethoxyphenyl) benzene-sulfonamide]	8.28 ± 3.4	12.1 ± 0.85		5.48 ± 0.58	11.5 ± 1.03	
COc1cc(N(Cc2nc(C)c3ccccc3n2)S(=O)(=O)c2ccc(C)cc2)cc(OC)c1OC [Compound 10e, 4-Methyl-N-((4-methylquinazolin-2-yl)methyl)-N-(3,4,5-trimethoxyphenyl) benzene-sulfonamide]	4.01 ± 0.07	2.48 ± 0.12	182 to 183	1.04	1.68 ± 0.12	1 ± 0.08
COc1ccc(S(=O)(=O)N(Cc2ccc(Br)cc2)c2cc(OC)c(OC)c(OC)c2)cc1 [Compound 9c, N-(4-bromobenzyl)-4-methoxy-N-(3,4,5-trimethoxyphenyl) benzene-sulphonamide]	28 ± 2.76	> 50	187 to 188	31.1 ± 0.79	33.8 ± 1.39	
COc1ccc(C(=O)N(Cc2nc(C)c3ccccc3n2)c2cc(OC)c(OC)c(OC)c2)cc1 [Compound 11h, 4-Methoxy-N-((4-methylquinazolin-2-yl)methyl)-N-(3,4,5-trimethoxyphenyl) benzamide]	18.7 ± 1.38	10.4 ± 1.04		5.82 ± 1.17	22.4 ± 1.54	
COc1cc(N(Cc2nc(C)c3ccccc3n2)S(=O)(=O)c2ccccn2)cc(OC)c1OC [Compound 10j, N-((4-Methylquinazolin-2-yl)methyl)-N-(3,4,5-trimethoxyphenyl)pyridine-2-sulphonamide]	28.2 ± 1.98	24.8 ± 2.13	159 to 160	14.7 ± 1.88	34.2 ± 1.83	
COc1ccc(S(=O)(=O)N(Cc2nc(C)c3ccccc3n2)c2ccccc2)cc1 [Compound 14a, 4-Methoxy-N-((4-methylquinazolin-2-yl)methyl)-N-phenylbenzene-sulphonamide]	> 50	46.9 ± 1.84	85 to 86	44.6 ± 1.41	> 50	
COc1cc(N(Cc2nc(C)c3ccccc3n2)C(=O)c2ccc(Br)cc2)cc(OC)c1OC [Compound 11c, 4-Bromo-N-((4-methylquinazolin-2-yl)methyl)-N-(3,4,5-trimethoxyphenyl) benzamide]	26.8 ± 1.32	20.4 ± 1.23	182 to 183	13.6 ± 1.24	28.1 ± 1.47	
COc1ccc(CN(c2cc(OC)c(OC)c(OC)c2)S(=O)(=O)c2ccc(F)cc2)cc1 [Compound 6a, 4-Fluoro-N-(4-methoxybenzyl)-N-(3,4,5-trimethoxyphenyl) benzene-sulphonamide]	18.8 ± 0.31	16.7 ± 1.03	156 to 157	6.62 ± 0.82	> 40	
COc1ccc(S(=O)(=O)N(Cc2ccc(OC)c(OC)c2)c2cc(OC)c(OC)c(OC)c2)cc1 [Compound 9e, N-(3,4-dimethoxybenzyl)-4-methoxy-N-(3,4,5-trimethoxyphenyl) benzene-sulphonamide]	10.2 ± 0.52	8.6 ± 2.85	136 to 137	7.92 ± 2.26	22.9 ± 1.82	
COc1cc(N(Cc2nc(C)c3ccccc3n2)S(=O)(=O)c2ccc(Br)cc2)cc(OC)c1OC [Compound 10c, 4-Bromo-N-((4-methylquinazolin-2-yl)methyl)-N-(3,4,5-trimethoxyphenyl) benzene-sulfonamide]	1.81 ± 0.26	1.49 ± 0.22	170 to 171	0.82 ± 0.11	1.4 ± 0.25	
COc1cc(N(Cc2nc(C)c3ccccc3n2)S(=O)(=O)c2ccccc2Cl)cc(OC)c1OC [Compound 10d, 2-Chloro-N-((4-methylquinazolin-2-yl)methyl)-N-(3,4,5-trimethoxyphenyl) benzene-sulfonamide]	> 50	18.7 ± 1.27	183 to 184	> 50	22.1 ± 0.31	
COc1ccc(CN(c2cc(OC)c(OC)c(OC)c2)S(=O)(=O)c2ccc(OC)cc2)cc1 [Compound 6e, 4-Methoxy-N-(4-methoxybenzyl)-N-(3,4,5-trimethoxyphenyl) benzene-sulphonamide]	4.01 ± 1.67	3.48 ± 1.22	179 to 180	2.86 ± 1.08	7.68 ± 1.82	
COc1cc(N(Cc2nc(C)c3ccccc3n2)S(=O)(=O)c2c(C)cc(C)cc2C)cc(OC)c1OC [Compound 10f, 2,4,6-Trimethyl-N-((4-methylquinazolin-2-yl)methyl)-N-(3,4,5-trimethoxyphenyl) benzene-sulfonamide]	> 50	> 50	154 to 155	> 50	> 50	
COc1ccc(CN(c2cc(OC)c(OC)c(OC)c2)S(=O)(=O)c2ccc(C)cc2)cc1 [Compound 6c]	8.81 ± 0.98	6.18 ± 0.61		4.32 ± 0.65	11.2 ± 1.02	
COc1ccc(CN(c2cc(OC)c(OC)c(OC)c2)S(=O)(=O)c2ccccc2)cc1 [Compound 6d]	> 40	> 40		> 40	> 40	
